Experimental data published in US12077503B2, “Substituted cyclic amides and their use as herbicides” (FMC CORPORATION, priority 2015, dated 2024).

Assays:
Format in all cases: in vivo
corn (Zea mays) [1] = experiment: Test G Post-Emergence Protocol; conditions: Zea mays, post-emergence, 312 h, read-out: Corn damage rating
Outline: (§1)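 Pot-grown seedlings, 8 days old, raised in a glasshouse at 24/16 °C day/night with 14 h light and 65% humidity, were sprayed post-emergence with test compound in acetone/water (50:50) plus 0.5% Tween 20 at 15.625, 62.5 or 250 g/ha. Damage was scored visually 13 days later on a 0–100 scale (100 = total damage).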

[2] = test system: redroot pigweed (Amaranthus retroflexus); experiment: Test G Post-Emergence Protocol; conditions: Amaranthus retroflexus, post-emergence, 312 h, read-out: Pigweed, Redroot damage rating
Outline: as §1

[3] = test system: barnyardgrass (Echinochloa crus-galli); experiment: Test G Post-Emergence Protocol; conditions: Echinochloa crus-galli, post-emergence, 312 h, read-out: Barnyardgrass damage rating
Outline: as §1

[4] = test system: ivy-leaved morning glory (Ipomoea hederacea); experiment: Test G Post-Emergence Protocol; conditions: Ipomoea, post-emergence, 312 h, read-out: Morningglory, Ivy-leaved damage rating
Outline: as §1

[5] = test system: giant foxtail (Setaria faberi); experiment: Test G Post-Emergence Protocol; conditions: Setaria faberi, post-emergence, 312 h, read-out: Foxtail, Giant damage rating
Outline: as §1

[6] = test system: velvetleaf (Abutilon theophrasti); experiment: Test G Post-Emergence Protocol; conditions: Abutilon theophrasti, post-emergence, 312 h, read-out: Velvetleaf damage rating
Outline: as §1

corn (Zea mays) [7] = experiment: Test G Pre-Emergence Protocol; conditions: Zea mays, pre-emergence, 312 h, evaluated after 13 days
Outline: (§2)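 Under a 24/16° C day/night regime with 14 h light and 65% humidity, sown pots were sprayed after one day with compound (15.625, 62.5 or 250 g/ha; 50:50 acetone/water, 0.5% Tween 20). Damage was assessed visually 13 days later, 0 to 100.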

[8] = test system: redroot pigweed (Amaranthus retroflexus); experiment: Test G Pre-Emergence Protocol; conditions: Amaranthus retroflexus, pre-emergence, 312 h, evaluated after 13 days
Outline: as §2

[9] = test system: barnyardgrass (Echinochloa crus-galli); experiment: Test G Pre-Emergence Protocol; conditions: Echinochloa crus-galli, pre-emergence, 312 h, evaluated after 13 days
Outline: as §2

[10] = test system: ivy-leaved morning glory (Ipomoea hederacea); experiment: Test G Pre-Emergence Protocol; conditions: Ipomoea, pre-emergence, 312 h, evaluated after 13 days
Outline: as §2

[11] = test system: giant foxtail (Setaria faberi); experiment: Test G Pre-Emergence Protocol; conditions: Setaria faberi, pre-emergence, 312 h, evaluated after 13 days
Outline: as §2

[12] = test system: velvetleaf (Abutilon theophrasti); experiment: Test G Pre-Emergence Protocol; conditions: Abutilon theophrasti, pre-emergence, 312 h, evaluated after 13 days
Outline: as §2

[13] = 15.625 g ai/ha, evaluated after 13 days (100=total damage to plant; 0=no damage to plant)
[14] = 62.5 g ai/ha, evaluated after 13 days, 100=total damage to plant, 0=no damage to plant
[15] = 250 g ai/ha, evaluated after 13 days, 100=total damage to plant, 0=no damage to plant

Cc1c[nH]nc1NC(=O)[C@@H]1C(=O)N(C)C[C@H]1c1ccc(C(F)(F)F)cc1 (racemic) [Compound 1660]
0%: plant injury at 15.625 g/ha (corn (Zea mays) [1]; [13]) | plant injury at 62.5 g/ha (corn (Zea mays) [1]; [14]) | plant injury at 250 g/ha (corn (Zea mays) [1]; [15]) | pest or weed control at 15.625 g/ha [2, 13] | pest or weed control at 62.5 g/ha [2, 14] | pest or weed control at 250 g/ha [2, 15] | pest or weed control at 15.625 g/ha [3, 13] | pest or weed control at 62.5 g/ha [3, 14] | pest or weed control at 250 g/ha [3, 15] | pest or weed control at 15.625 g/ha [4, 13] | pest or weed control at 62.5 g/ha [4, 14] | pest or weed control at 250 g/ha [4, 15] | pest or weed control at 15.625 g/ha [5, 13] | pest or weed control at 62.5 g/ha [5, 14] | pest or weed control at 250 g/ha [5, 15] | pest or weed control at 15.625 g/ha [6, 13] | pest or weed control at 62.5 g/ha [6, 14] | pest or weed control at 250 g/ha [6, 15] | plant injury at 15.625 g/ha (corn (Zea mays) [7]; 15.625 g ai/ha, read-out: Corn damage rating (100=total damage to plant; 0=no damage to plant)) | plant injury at 62.5 g/ha (corn (Zea mays) [7]; 62.5 g ai/ha, 100=total damage to plant, 0=no damage to plant, read-out: Corn damage rating) | plant injury at 250 g/ha (corn (Zea mays) [7]; 250 g ai/ha, read-out: Corn damage rating (100=total damage to plant; 0=no damage to plant)) | pest or weed control at 15.625 g/ha ([8]; 15.625 g ai/ha, read-out: Pigweed, Redroot damage rating (100=total damage to plant; 0=no damage to plant)) | pest or weed control at 62.5 g/ha ([8]; 62.5 g ai/ha, 100=total damage to plant, 0=no damage to plant, read-out: Pigweed, Redroot damage rating) | pest or weed control at 250 g/ha ([8]; 250 g ai/ha, read-out: Pigweed, Redroot damage rating (100=total damage to plant; 0=no damage to plant)) | pest or weed control at 15.625 g/ha ([9]; 15.625 g ai/ha, read-out: Barnyardgrass damage rating (100=total damage to plant; 0=no damage to plant)) | pest or weed control at 62.5 g/ha ([9]; 62.5 g ai/ha, 100=total damage to plant, 0=no damage to plant, read-out: Barnyardgrass damage rating) | pest or weed control at 250 g/ha ([9]; 250 g ai/ha, read-out: Barnyardgrass damage rating (100=total damage to plant; 0=no damage to plant)) | pest or weed control at 15.625 g/ha ([10]; 15.625 g ai/ha, read-out: Morningglory, Ivy-leaved damage rating (100=total damage to plant; 0=no damage to plant)) | pest or weed control at 62.5 g/ha ([10]; 62.5 g ai/ha, 100=total damage to plant, 0=no damage to plant, read-out: Morningglory, Ivy-leaved damage rating) | pest or weed control at 250 g/ha ([10]; 250 g ai/ha, read-out: Morningglory, Ivy-leaved damage rating (100=total damage to plant; 0=no damage to plant)) | pest or weed control at 15.625 g/ha ([11]; 15.625 g ai/ha, read-out: Foxtail, Giant damage rating (100=total damage to plant; 0=no damage to plant)) | pest or weed control at 62.5 g/ha ([11]; 62.5 g ai/ha, 100=total damage to plant, 0=no damage to plant, read-out: Foxtail, Giant damage rating) | pest or weed control at 250 g/ha ([11]; 250 g ai/ha, read-out: Foxtail, Giant damage rating (100=total damage to plant; 0=no damage to plant)) | pest or weed control at 15.625 g/ha ([12]; 15.625 g ai/ha, read-out: Velvetleaf damage rating (100=total damage to plant; 0=no damage to plant)) | pest or weed control at 62.5 g/ha ([12]; 62.5 g ai/ha, 100=total damage to plant, 0=no damage to plant, read-out: Velvetleaf damage rating) | pest or weed control at 250 g/ha ([12]; 250 g ai/ha, read-out: Velvetleaf damage rating (100=total damage to plant; 0=no damage to plant))
